The test system of one assay is HepG2 cells. The assay can be described thus: Cytotoxicity by LDH release in HepG2 cells. It is filed as cell-based. The settings on record: 0 to 160 μM. As to the method: E. coli strain CFT073 and its derivative CFT073ΔcpxA::cat were described previously and maintained on Luria broth (LB) plates at 37°C ([30]). The E. coli PcpxP′-lacZ reporter strain, PAD282, was the gift of Thomas Silhavy (Princeton University, Princeton, NJ, USA) and was maintained on TB plates at 37°C ([31]). HepG2 hepatocellular carcinoma cells were the gift of Andy Yu (Indiana University, Indianapolis, IN) and were grown in RPMI […] medium (Gibco) containing 10% fetal calf serum (HyClone) and 1 mM sodium pyruvate (Sigma) at 37°C with 5% CO2 as described ([31]).
The cytotoxicity of compound 6 for HepG2 cells was determined by LDH release after incubation with the compound in concentrations ranging from 0 to 160 μM for 5 h and 24 h exactly as described ([31]). The IC50 was determined from quadruplicate experiments by the GraphPad Prism 6 software using a nonlinear fit model.
(In general: LDH in the medium is a marker of cell lysis.)

The test system of a further assay is UPEC strain CFT073. It is filed as in vivo, Escherichia coli (in female CBA/J mice). To be noted: compound 26 trial.

Bounds are passed on as bounds.

For `NC1CCCc2c1[nH]c1ccc(F)cc21` (stereo not drawn) [compound 6], the “IC50, LDH release” value with HepG2 cells (5 h incubation) was “could not be calculated”. The IC50 in the assay with HepG2 cells (Homo sapiens, 24 h incubation) was above 33 µM.

As for `N[C@@H]1CCCc2c1[nH]c1cc(F)c(F)cc21` [compound 26], in the assay with UPEC strain CFT073, the “recoverable CFU in bladder vs vehicle-treated mice inoculated with CFT073ΔcpxA::cat” value is listed as “significantly lower”, the “recoverable CFU in kidneys vs vehicle-treated mice inoculated with CFT073ΔcpxA::cat” value is “significantly lower” and the “recoverable CFU in urine vs vehicle-treated mice inoculated with CFT073ΔcpxA::cat” value is reported as “trended toward having a lower CFU”. The “recoverable CFU in urine vs CFT073-inoculated vehicle-treated controls” value in the assay with UPEC strain CFT073 (8 mice/group, compound 26 100 mg/kg s.c. at 12, 36, 60 h, ciprofloxacin 2.5 mg/kg/dose s.c. at 12, 24, 36, 48, 60 h, sacrifice 64 h) is listed as “significantly lowered”. In addition, in the assay on UPEC strain CFT073 (same regimens), the “recoverable CFU in bladder vs CFT073-inoculated vehicle-treated controls” value is “trended toward lowering” and the “recoverable CFU in kidneys vs CFT073-inoculated vehicle-treated controls” value is “trended toward lowering”. Moreover, the “recoverable CFU in urine, bladder and kidneys vs ciprofloxacin-treated group” value in the assay with UPEC strain CFT073 (all P > 0.9) was “no significant differences”.

Broadly, the IC50 is the concentration needed to halve the response being measured. The low end stands for inhibition by little substance, the high end for a need for much substance.

These data come from publication PMC9045377, “CpxA Phosphatase Inhibitor Activates CpxRA and Is a Potential Treatment for Uropathogenic Escherichia coli in a Murine Model of Infection” (Microbiology Spectrum, 2022).
